From patent US20100216779A1 (GLAXOSMITHKLINE LLC, priority 2007, published 2010)

Assays:
Type in all cases: cell-based
[1] = system: COLO205 (colon); assay: Inhibition of cell proliferation, CellTiter-Glo, COLO205; details: Homo sapiens, COLO 205, 72 h
Procedure, shortened: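 Exponentially growing COLO205 cells in medium with 10% FBS were plated below 2000 cells/well at 37 °C, 5% CO2. Untreated wells served as controls.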

[2] = biological target: T1, human IGF-1R (NIH-3T3 cells over expressing human IGF-1R) (Homo sapiens, UniProt P08069); assay: IGF-1R cellular autophosphorylation (DELFIA); details: IGF-1 stimulated
T1 construct: expressed in transfected cells; host or cells: NIH-3T3 (mouse fibroblasts)
T1 sequence (P08069 31-1367): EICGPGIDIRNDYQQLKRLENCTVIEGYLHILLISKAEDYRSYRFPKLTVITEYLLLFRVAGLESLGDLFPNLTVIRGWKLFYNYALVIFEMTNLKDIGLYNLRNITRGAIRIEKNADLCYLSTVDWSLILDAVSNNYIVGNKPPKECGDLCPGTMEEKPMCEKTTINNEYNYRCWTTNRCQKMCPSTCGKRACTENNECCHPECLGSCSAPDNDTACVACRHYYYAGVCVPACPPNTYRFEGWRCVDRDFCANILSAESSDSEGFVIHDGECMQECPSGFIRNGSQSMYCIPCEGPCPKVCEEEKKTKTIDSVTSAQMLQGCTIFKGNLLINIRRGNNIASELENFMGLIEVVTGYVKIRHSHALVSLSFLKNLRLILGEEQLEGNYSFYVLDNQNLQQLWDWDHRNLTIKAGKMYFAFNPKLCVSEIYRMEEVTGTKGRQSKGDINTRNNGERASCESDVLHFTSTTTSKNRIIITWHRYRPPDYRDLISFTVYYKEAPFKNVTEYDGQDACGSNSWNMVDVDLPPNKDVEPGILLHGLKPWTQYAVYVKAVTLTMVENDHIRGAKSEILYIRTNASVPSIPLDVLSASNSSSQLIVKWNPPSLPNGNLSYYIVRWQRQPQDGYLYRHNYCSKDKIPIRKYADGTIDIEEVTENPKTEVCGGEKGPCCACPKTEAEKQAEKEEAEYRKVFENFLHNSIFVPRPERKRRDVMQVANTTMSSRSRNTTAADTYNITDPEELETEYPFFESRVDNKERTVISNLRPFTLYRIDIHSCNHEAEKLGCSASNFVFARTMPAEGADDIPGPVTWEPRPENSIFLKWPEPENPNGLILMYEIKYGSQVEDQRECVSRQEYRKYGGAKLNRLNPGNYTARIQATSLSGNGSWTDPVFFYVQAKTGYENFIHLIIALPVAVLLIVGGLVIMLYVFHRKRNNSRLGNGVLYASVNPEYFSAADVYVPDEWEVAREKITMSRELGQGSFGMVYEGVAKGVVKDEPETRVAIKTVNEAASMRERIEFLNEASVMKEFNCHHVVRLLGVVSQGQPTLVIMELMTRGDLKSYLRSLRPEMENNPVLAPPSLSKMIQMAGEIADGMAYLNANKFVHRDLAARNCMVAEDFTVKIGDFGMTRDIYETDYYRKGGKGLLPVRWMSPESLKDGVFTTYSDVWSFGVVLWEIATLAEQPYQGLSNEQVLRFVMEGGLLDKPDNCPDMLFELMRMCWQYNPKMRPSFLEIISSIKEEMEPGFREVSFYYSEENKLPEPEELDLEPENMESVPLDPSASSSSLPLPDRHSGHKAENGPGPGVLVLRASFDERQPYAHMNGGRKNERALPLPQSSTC
Procedure, shortened: (§1)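 Autophosphorylation of IGF-1R or IR is measured in NIH-3T3 lines overexpressing each human receptor after 2 h compound pretreatment and a 15 min ligand challenge (IGF-1 30 ng/mL; insulin 3 ug/mL). Fluorescence is normalised to 100% stimulation.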

[3] = system: NCI-H929 (multiple myeloma); assay: Inhibition of cell proliferation, CellTiter-Glo, NCI-H929; details: Homo sapiens, 72 h
Procedure, shortened: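 Cells were grown in medium with 10% FBS at 37° C, 5% CO2. Cell number was read as CellTiter-Glo luminescence (cellular ATP), with untreated wells as control.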

[4] = biological target: T2, IR (NIH-3T3 cells over expressing human IGF-1R or IR) (Homo sapiens, UniProt P06213); assay: IR cellular autophosphorylation (DELFIA); details: NIH-3T3 cells over expressing IR, insulin stimulated
T2 construct: expressed in transfected cells; host or cells: NIH-3T3 (mouse fibroblasts)
T2 sequence (P06213 28-1382): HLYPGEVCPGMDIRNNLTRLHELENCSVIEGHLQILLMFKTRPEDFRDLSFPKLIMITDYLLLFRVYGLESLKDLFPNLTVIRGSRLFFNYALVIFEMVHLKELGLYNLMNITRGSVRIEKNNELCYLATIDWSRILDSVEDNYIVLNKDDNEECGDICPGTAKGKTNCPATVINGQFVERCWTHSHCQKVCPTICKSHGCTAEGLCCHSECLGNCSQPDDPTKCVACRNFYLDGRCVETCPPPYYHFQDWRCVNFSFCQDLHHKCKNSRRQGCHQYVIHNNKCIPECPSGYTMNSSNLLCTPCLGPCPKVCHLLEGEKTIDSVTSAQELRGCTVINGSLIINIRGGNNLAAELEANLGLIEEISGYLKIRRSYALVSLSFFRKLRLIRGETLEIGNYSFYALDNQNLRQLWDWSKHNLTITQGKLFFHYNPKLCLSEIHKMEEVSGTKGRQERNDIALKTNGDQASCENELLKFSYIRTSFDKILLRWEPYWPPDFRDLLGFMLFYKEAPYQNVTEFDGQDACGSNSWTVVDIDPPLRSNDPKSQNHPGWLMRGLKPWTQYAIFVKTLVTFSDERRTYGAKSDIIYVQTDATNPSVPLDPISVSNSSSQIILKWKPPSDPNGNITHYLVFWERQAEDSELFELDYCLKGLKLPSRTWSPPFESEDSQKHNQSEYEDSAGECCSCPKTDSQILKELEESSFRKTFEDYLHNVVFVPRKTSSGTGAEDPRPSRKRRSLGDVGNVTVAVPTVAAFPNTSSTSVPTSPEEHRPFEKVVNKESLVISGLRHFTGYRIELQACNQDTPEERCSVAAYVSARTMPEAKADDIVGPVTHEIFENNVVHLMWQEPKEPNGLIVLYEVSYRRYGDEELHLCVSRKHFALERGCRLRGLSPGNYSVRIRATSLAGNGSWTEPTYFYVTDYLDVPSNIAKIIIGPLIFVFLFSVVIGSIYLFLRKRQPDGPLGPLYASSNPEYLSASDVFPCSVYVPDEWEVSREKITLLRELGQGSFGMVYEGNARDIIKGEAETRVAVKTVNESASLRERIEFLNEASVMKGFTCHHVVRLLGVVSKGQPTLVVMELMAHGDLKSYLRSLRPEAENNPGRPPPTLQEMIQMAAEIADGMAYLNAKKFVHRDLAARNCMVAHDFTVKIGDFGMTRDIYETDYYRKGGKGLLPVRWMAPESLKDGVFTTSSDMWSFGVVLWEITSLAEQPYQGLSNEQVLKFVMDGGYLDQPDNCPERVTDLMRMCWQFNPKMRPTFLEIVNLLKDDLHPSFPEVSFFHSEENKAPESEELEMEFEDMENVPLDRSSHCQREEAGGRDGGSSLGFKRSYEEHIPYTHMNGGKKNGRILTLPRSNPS
Procedure, shortened: as §1

Row | Compound | IC50 [1] [nM] | IC50 [2] [nM] | IC50 [3] [nM] | IC50 [4] [nM]
1 | CCOc1cc(N2CCC(CCS(C)(=O)=O)CC2)c(CC)cc1Nc1nccc(-c2c(-c3ccc(OC)c(C(=O)Nc4c(F)cccc4F)c3)nc3ccccn23)n1 [Example 210, N-(2,6-difluorophenyl)-5-[3-{2-[(5-ethyl-2-(ethyloxy)-4-{4-[2-(methylsulfonyl)ethyl]-1-piperidinyl}phenyl)amino]-4-pyrimidinyl}imidazo[1,2-a]pyridin-2-yl)-2-(methyloxy)benzamide] | < 250 | < 100 | < 250 | < 100
2 | COc1cc(N2CCN(CCS(C)(=O)=O)CC2)c(C)cc1Nc1nccc(-c2c(-c3cccc(C(=O)Nc4c(F)cccc4F)c3)nc3ccccn23)n1 [Example 148, N-(2,6-difluorophenyl)-3-(3-{2-[(5-methyl-2-(methyloxy)-4-{4-[2-(methylsulfonyl)ethyl]-1-piperazinyl}phenyl)amino]-4-pyrimidinyl}imidazo[1,2-a]pyridin-2-yl)benzamide] | < 250 | < 100 | < 250 | < 100
3 | CCOc1cc(N2CCN(CCS(C)(=O)=O)CC2)ccc1Nc1nccc(-c2c(-c3ccc(OCC)c(C(=O)Nc4c(F)cccc4F)c3)nc3ccccn23)n1 [Example 144, N-(2,6-difluorophenyl)-2-(ethyloxy)-5-(3-{2-[(2-(ethyloxy)-4-{4-[2-(methylsulfonyl)ethyl)-1-piperazinyl}phenyl)amino]-4-pyrimidinyl}imidazo[1,2-a]pyridin-2-yl)benzamide] | < 250 | < 100 | < 250 | < 100
4 | COc1cc(N2CCC(N3CCN(CCF)CC3)CC2)ccc1Nc1nccc(-c2c(-c3cccc(C(=O)Nc4c(F)cccc4F)c3)nc3cc(C(F)(F)F)ccn23)n1 [Example 189, N-(2,6-difluorophenyl)-3-[3-(2-{[4-{4-[4-(2-fluoroethyl)-1-piperazinyl]-1-piperidinyl}-2-(methyloxy)phenyl]amino}-4-pyrimidinyl)-7-(trifluoromethyl)imidazo[1,2-a]pyridin-2-yl]benzamide] | > 1000 | 100 to 500 | 250 to 1000 | > 500
5 | CCc1cc(Nc2nccc(-c3c(-c4cccc(C(=O)Nc5c(F)cccc5F)c4)nc4ccccn34)n2)c(OC)cc1N1CCC(N2CCN(S(C)(=O)=O)CC2)CC1 [Example 244, N-(2,6-difluorophenyl)-3-(3-{2-[(5-ethyl-2-(methyloxy)-4-{4-[4-(methylsulfonyl)-1-piperazinyl]-1-piperidinyl}phenyl)amino]-4-pyrimidinyl}imidazo[1,2-a]pyridin-2-yl)benzamide] | 250 to 1000 | < 100 | 250 to 1000 | < 100
6 | CCOc1cc(N2CCC(N3CCN(S(C)(=O)=O)CC3)CC2)ccc1Nc1nccc(-c2c(-c3ccc(OCC)c(C(=O)Nc4c(F)cccc4F)c3)nc3ccccn23)n1 [Example 222, N-(2,6-difluorophenyl)-2-(ethyloxy)-5-(3-{2-[(2-(ethyloxy)-4-{4-[4-(methylsulfonyl)-1-piperazinyl]-1-piperidinyl}phenyl)amino]-4-pyrimidinyl}imidazo[1,2-a]pyridin-2-yl)benzamide] | < 250 | < 100 | < 250 | < 100
7 | COc1cc(N2CCC(N3CCN(CCF)CC3)CC2)ccc1Nc1nccc(-c2c(-c3cccc(C(=O)Nc4c(F)cccc4F)c3)nc3cc(F)ccn23)n1 [Example 194, N-(2,6-difluorophenyl)-3-[7-fluoro-3-(2-{[4-{4-[4-(2-fluoroethyl)-1-piperazinyl]-1-piperidinyl}-2-(methyloxy)phenyl]amino]-4-pyrimidinyl)imidazo[1,2-a]pyridin-2-yl]benzamide] | 250 to 1000 | < 100 | 250 to 1000 | 100 to 500
8 | CCOc1ccc(-c2nc3ccccn3c2-c2ccnc(Nc3cc(C)c(N4CCN(CCOC)CC4)cc3OC)n2)cc1C(=O)Nc1c(F)cccc1F [Example 241, N-(2,6-difluorophenyl)-2-(ethyloxy)-5-(3-{2-[(5-methyl-2-(methyloxy)-4-{4-[2-(methyloxy)ethyl]-1-piperazinyl}phenyl)amino]-4-pyrimidinyl}imidazo[1,2-a]pyridin-2-yl)benzamide] | 250 to 1000 | < 100 | < 250 | < 100
9 | COc1cc(N2CCC(CCS(C)(=O)=O)CC2)c(C)cc1Nc1nccc(-c2c(-c3ccc(OC)c(C(=O)Nc4c(F)cccc4F)c3)nc3ccccn23)n1 [Example 230, N-(2,6-difluorophenyl)-5-(3-{2-[(5-methyl-2-(methyloxy)-4-{4-[2-(methylsulfonyl)ethyl]-1-piperidinyl}phenyl)amino]-4-pyrimidinyl}imidazo[1,2-a]pyridin-2-yl)-2-(methyloxy)benzamide] | < 250 | < 100 | < 250 | < 100

Second part, the compound after the results:

Row | IC50 [1] [nM] | IC50 [2] [nM] | IC50 [3] [nM] | IC50 [4] [nM] | Compound
10 | 250 to 1000 | < 100 | 250 to 1000 | < 100 | COCCN1CCN(c2ccc(Nc3nccc(-c4c(-c5cccc(C(=O)Nc6c(F)cccc6F)c5)nc5ccccn45)n3)c(OC)c2)CC1 [Example 240, N-(2,6-difluorophenyl)-3-(3-{2-[(2-(methyloxy)-4-{4-[2-(methyloxy)ethyl]-1-piperazinyl}phenyl)amino]-4-pyrimidinyl}imidazo[1,2-a]pyridin-2-yl)benzamide]
11 | 250 to 1000 | 100 to 500 | < 250 | 100 to 500 | COc1cc(N2CCC(CCS(C)(=O)=O)CC2)ccc1Nc1nccc(-c2c(-c3cccc(C(=O)Nc4c(F)cccc4F)c3)nc3ccccn23)n1 [Example 202, N-(2,6-difluorophenyl)-3-(3-{2-[(2-(methyloxy)-4-{4-[2-(methylsulfonyl)ethyl)-1-piperidinyl}phenyl)amino]-4-pyrimidinyl]imidazo[1,2-a]pyridin-2-yl)benzamide]
12 | 250 to 1000 | 100 to 500 | < 250 | < 100 | CCN1CCN(C2CCN(c3ccc(Nc4nccc(-c5c(-c6cccc(C(=O)Nc7c(F)cccc7F)c6)nc6ccccn56)n4)c(OC)c3)CC2)CC1 [Example 64, N-(2,6-difluorophenyl)-3-[3-(2-{[4-[4-(4-ethyl-1-piperazinyl)-1-piperidinyl]-2-(methyloxy)phenyl]amino}-4-pyrimidinyl)imidazo[1,2-a]pyridin-2-yl]benzamide]
13 | < 250 | < 100 | < 250 | < 100 | CCOc1ccc(-c2nc3ccccn3c2-c2ccnc(Nc3ccc(N4CCC(CCS(C)(=O)=O)CC4)cc3OC)n2)cc1C(=O)Nc1c(F)cccc1F [Example 200, N-(2,6-difluorophenyl)-2-(ethyloxy)-5-(3-{2-[(2-(methyloxy)-4-{4-[2-(methylsulfonyl)ethyl]-1-piperidinyl}phenyl)amino]-4-pyrimidinyl}imidazo[1,2-a]pyridin-2-yl)benzamide]
14 | 250 to 1000 | < 100 | 250 to 1000 | < 100 | CCCN1CCN(c2ccc(Nc3nccc(-c4c(-c5cccc(C(=O)Nc6c(F)cccc6F)c5)nc5ccccn45)n3)c(OC)c2)CC1 [Example 173, N-(2,6-difluorophenyl)-3-[3-(2-{[2-(methyloxy)-4-(4-propyl-1-piperazinyl)phenyl]amino}-4-pyrimidinyl)imidazo[1,2-a]pyridin-2-yl]benzamide]
